# Measured values as given in ChEMBL document CHEMBL3853301, “The therapeutic voyage of pyrazole and its analogs: A review” (Eur J Med Chem, 2016).
# Legend:
# [1] = test system: Mycobacterium tuberculosis; test: Antimycobacterial activity against Mycobacterium tuberculosis H37Rv; format: functional
# [2] = test system: Bovine viral diarrhea virus 1; test: Antiviral activity against Bovine viral diarrhea virus 1 infected in MDBK cells; format: functional, cell-based; details: Bovine viral diarrhea virus isolates and strains
# Staphylococcus aureus [3] = test: Antibacterial activity against Staphylococcus aureus NCTC 7447 by agar diffusion method; format: functional
# Staphylococcus aureus [4] = test: Antibacterial activity against Staphylococcus aureus NCTC 7447 by serial dilution method; format: functional
# [5] = Selectivity index, ratio of IC50 for recombinant ovine COX1 to IC50 for recombinant human COX2
# [6] = biological target: T1, Prostaglandin G/H synthase 1 (Ovis aries, UniProt P05979); test: Inhibition of recombinant ovine COX1 assessed as reduction in PGF2alpha production from PGH2 by enzyme immunoassay
# T1 sequence (P05979 whole entry): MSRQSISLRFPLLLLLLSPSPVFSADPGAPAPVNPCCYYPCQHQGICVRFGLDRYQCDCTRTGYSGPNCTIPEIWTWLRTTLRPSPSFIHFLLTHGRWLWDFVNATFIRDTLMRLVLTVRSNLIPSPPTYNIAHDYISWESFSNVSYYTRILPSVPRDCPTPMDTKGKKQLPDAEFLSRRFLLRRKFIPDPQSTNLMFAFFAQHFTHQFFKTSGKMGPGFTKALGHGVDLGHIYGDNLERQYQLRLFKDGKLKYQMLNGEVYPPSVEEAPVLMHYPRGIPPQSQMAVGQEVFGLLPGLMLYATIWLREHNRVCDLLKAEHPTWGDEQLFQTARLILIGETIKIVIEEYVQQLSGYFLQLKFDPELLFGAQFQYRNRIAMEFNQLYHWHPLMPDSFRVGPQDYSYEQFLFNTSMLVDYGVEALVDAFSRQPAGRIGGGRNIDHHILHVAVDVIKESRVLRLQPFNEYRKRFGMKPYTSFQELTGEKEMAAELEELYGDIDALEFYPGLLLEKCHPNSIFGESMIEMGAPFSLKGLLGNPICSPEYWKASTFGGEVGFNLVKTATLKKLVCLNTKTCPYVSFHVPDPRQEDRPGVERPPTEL
# [7] = biological target: T2, Prostaglandin G/H synthase 2 (Homo sapiens, UniProt P35354); test: Inhibition of recombinant human COX2 assessed as reduction in PGF2alpha production from PGH2 by enzyme immunoassay
# T2 sequence (P35354 whole entry): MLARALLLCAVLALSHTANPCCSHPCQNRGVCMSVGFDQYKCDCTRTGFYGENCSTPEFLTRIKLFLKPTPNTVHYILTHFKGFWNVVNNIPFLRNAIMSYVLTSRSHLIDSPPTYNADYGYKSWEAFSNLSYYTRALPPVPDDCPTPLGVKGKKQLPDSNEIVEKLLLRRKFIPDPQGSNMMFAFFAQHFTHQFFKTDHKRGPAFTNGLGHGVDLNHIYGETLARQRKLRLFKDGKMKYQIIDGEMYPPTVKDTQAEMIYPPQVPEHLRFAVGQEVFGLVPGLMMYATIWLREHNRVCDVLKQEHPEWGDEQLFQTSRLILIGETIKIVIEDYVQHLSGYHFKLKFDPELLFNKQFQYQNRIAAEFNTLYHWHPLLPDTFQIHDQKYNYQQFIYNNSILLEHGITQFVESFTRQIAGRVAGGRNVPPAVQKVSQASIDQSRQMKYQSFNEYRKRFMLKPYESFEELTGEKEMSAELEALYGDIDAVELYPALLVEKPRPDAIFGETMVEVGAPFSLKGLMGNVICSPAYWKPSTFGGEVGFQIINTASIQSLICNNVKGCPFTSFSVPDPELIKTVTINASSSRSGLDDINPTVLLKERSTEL
# Escherichia coli [8] = test: Antibacterial activity against Escherichia coli after 16 hrs by serial dilution method; format: functional
# Pseudomonas aeruginosa = test: Antibacterial activity against Pseudomonas aeruginosa after 16 hrs by serial dilution method; format: functional
# Bacillus subtilis [9] = test: Antibacterial activity against Bacillus subtilis after 16 hrs by serial dilution method; format: functional
# Staphylococcus aureus [10] = test: Antibacterial activity against Staphylococcus aureus after 16 hrs by serial dilution method; format: functional
# Bacillus subtilis [11] = test: Antibacterial activity against Bacillus subtilis NCIM 2711 by broth microdilution method; format: functional
# [12] = Antifungal activity against Penicillium notatum NCIM 745 by broth microdilution method; format: functional; details: Penicillium chrysogenum
# Aspergillus fumigatus = test: Antifungal activity against Aspergillus fumigatus NCIM 535 by broth microdilution method; format: functional
# Bacillus cereus = test: Antibacterial activity against Bacillus cereus; format: functional
# Staphylococcus aureus [13] = test: Antibacterial activity against Staphylococcus aureus; format: functional
# Escherichia coli [14] = test: Antibacterial activity against Escherichia coli NCIM 2685 by broth microdilution method; format: functional
# Bacillus subtilis [15] = test: Antibacterial activity against Bacillus subtilis by broth dilution method; format: functional
# Rattus norvegicus = test: Antihyperglycemic activity in STZ/nicotinamide-induced type2 diabetic Wistar rat model assessed as blood glucose level at 100 mg/kg, po measured for 14 days post dose; format: functional
# [16] = Antiproliferative activity against human NPC-TW01 cells after 72 hrs by MTT assay; format: functional; details: NPC-TW01, 72 h
# [17] = Antiproliferative activity against human NCI-H226 cells after 72 hrs by MTT assay; format: functional; details: NCI-H226, 72 h
# Escherichia coli [18] = test: Antibacterial activity against Escherichia coli MTCC 443 after 24 hrs by broth dilution method; format: functional; details: MTCC 443, 24 h
# [19] = test system: Bovine viral diarrhea virus 1; test: Potency index, ratio of ribavirin EC50 to compound EC50 for Bovine viral diarrhea virus 1 infected in MDBK cells; format: functional
# [20] = Antidiabetic activity in albino mouse assessed as reduction in alloxan-induced plasma glucose level at 0.2 mmol/kg, po administered 3 days post alloxan challenge measured 1 to 3 hrs post dose by copper reduction based colorimetric assay relative to control; format: functional, organism-based
smiles,measurement,setting,value
O=C1c2ccccc2NC(c2cn(-c3ccccc3)nc2-c2ccccc2)N1c1ccc(Cl)cc1 (centres undefined),MIC,[1],12.5 µg/mL
NC(=O)c1ncn([C@@H]2O[C@H](CO)[C@@H](O)[C@H]2O)n1 [RIBAVIRIN],EC50,[2],1.3 µM
CC(=O)Nc1ccc(/N=N/c2c(N)nn3c(-c4ccccc4Cl)c(C#N)c(=O)[nH]c23)cc1,inhibition zone (IZ),Staphylococcus aureus [3],2.5 cm
same,MIC,Staphylococcus aureus [4],110 µg/mL
CC(=O)NC1=NN(C(C)=O)C(c2cn(-c3ccccc3)nc2-c2ccc([N+](=O)[O-])cc2)S1 (centres undefined),Ratio IC50,[5],3.5
same,IC50,[6],70 µM
same,IC50,[7],20 µM
Sc1nncn1/N=C/c1cn[nH]c1-c1ccccc1,MIC,Escherichia coli [8],1.61 µg/mL
same,MIC,Pseudomonas aeruginosa,1.61 µg/mL
same,MIC,Bacillus subtilis [9],1.61 µg/mL
same,MIC,Staphylococcus aureus [10],1.61 µg/mL
Nc1ccc2nc(Cl)c(-c3cc(-c4ccccc4)nn3C(=O)O)cc2c1,MIC,Bacillus subtilis [11],44 µg/mL
same,MIC,[12],46 µg/mL
same,MIC,Aspergillus fumigatus,48 µg/mL
O=C1C(c2cc(-c3ccc(Br)cc3)nn2-c2ccccc2)C(O)N(c2ccccc2)C(=S)N1c1ccccc1 (centres undefined),MIC,Bacillus cereus,31.2 µg/mL
same,MIC,Staphylococcus aureus [13],31.2 µg/mL
O=C(O)n1nc(-c2ccccc2)cc1-c1cc2ccccc2nc1Cl,MIC,Bacillus subtilis [11],54 µg/mL
same,MIC,[12],57 µg/mL
same,MIC,Escherichia coli [14],43 µg/mL
COc1ccc(-n2c(-c3cn(-c4ccccc4)nc3-c3ccccc3)nc3ccccc3c2=O)cc1,MIC,Bacillus subtilis [15],62.5 µg/mL
COc1ccc(-n2cc(CC3Cc4cc(OC)c(OC)cc4C3=O)c(-c3cc4ccccc4oc3=O)n2)cc1 (centres undefined),Activity,Rattus norvegicus,138 mg/dL
Nc1ccc(NC(=O)c2cc(-c3ccc(Cl)cc3)nn2-c2ccccc2)cc1,GI50,[16],30 µM
same,GI50,[17],18 µM
CC(=O)NC1=NN(C(C)=O)C(c2cn(-c3ccccc3)nc2-c2ccc(O)cc2)S1 (centres undefined),Ratio IC50,[5],5.21
same,IC50,[6],73 µM
same,IC50,[7],14 µM
O=C1/C(=C\c2cn(-c3ccccc3)nc2-c2ccc(O)cc2)SC(=S)N1c1ccc(Cl)cc1,IC50,Escherichia coli [14],62.5 µg/mL
COc1cc2c(cc1OC)C(=O)C(Cc1cn(-c3ccc(C)cc3)nc1-c1cc3ccccc3oc1=O)C2 (centres undefined),Activity,Rattus norvegicus,115 mg/dL
Cc1ccc(-c2cc(C(=O)Nc3ccc(N)cc3)n(-c3ccc4ccccc4n3)n2)cc1,GI50,[16],30 µM
same,GI50,[17],18 µM
O=C1CSC(N2N=C(c3ccccc3[N+](=O)[O-])CC2c2cn(-c3ccccc3)nc2-c2ccc(F)cc2)=N1 (centres undefined),MIC,Escherichia coli [18],12.5 µg/mL
Cc1ccc(-n2nc(C)c3c2CN(c2ccccc2)C3=O)cc1,EC50,[2],0.12 µM
same,Ratio EC50,[19],10
Cc1c(Br)c(C(F)(F)F)nn1-c1ccc(S(=O)(=O)NC(=O)Nc2ccccc2)cc1,inhibition,[20],20%
